Reference: patent US20240366594A1, “Small Molecule Inhibitors of Formation of Neutrophil-Derived Extracellular Traps (NETosis) and Uses Thereof” (The Brigham and Women's Hospital, Inc., priority 2021, published 2024)

Columns and labels:
Murine neutrophils = assay: ROS production (luminol-HRP luminescence) in murine neutrophils; format: cell-based, mouse; conditions: ricolinostat 10 μM, 1 μM PMA 3 h; FIG. 1G right
Method: FIGS. 1A-H. Class I/II HDACs drive NET formation • (A and B) Freshly purified human (A) or mouse (B) neutrophils were treated with the indicated HDAC inhibitors at different doses (10, 2, 0.4, 0.08 μM), or with GSK484 (10 μM), for 1 h and then stimulated with 1 μM PMA for 3 h. Cells were fixed and stained with anti-citrullinated histone H3 (CitH3) antibody. NETosis induction was measured as the level of anti-CitH3 fluorescent signal. PMA alone represents 100% of NET induction. “-”: Cells treated with the highest dose of the indicated drug but not activated with PMA. • (C and D) Human neutrophils were treated, or not, with ricolinostat or GSK484 and then stimulated with 1 μM PMA. NETosis induction was measured as area of nuclei stained with DAPI. (C) 3D reconstruction of nuclei in each treatment (grid size 7.8 μm). (D) Quantification of DAPI signal from multiple fields of view (D) (n=9 for unstimulated, not pretreated with any drug [NT] and ricolinostat, n=7 for GSK484). • (E and F) Human neutrophils were treated as in (C-D), and immunoblot analysis of the indicated proteins was performed. Relative quantification of band intensity was analyzed with ImageJ software (F). White violins plots depict the quantification of histone H3 acetylation; red violin plots depict the quantification of histone H3 citrullination. […] ROS production was measured by luminescence with luminol-HRP. […]

[1] = test system: primary human neutrophils; assay: Extracellular DNA release by PMA-activated human neutrophils; format: cell-based; conditions: 1 μM GSK484 for 1 h, then 1 μM PMA for 4 hours; FIG. 5A
Method: FIGS. 5A-J. Class I/II HDACs drive NET formation. • A) Quantification of extracellular DNA released by neutrophils treated, or not, with 1 μM GSK484 for 1 h and then stimulated with 1 μM PMA for 4 hours. Unstimulated, neutrophils not treated with drugs were used as a control. • B) Freshly purified human neutrophils were treated with the indicated HDAC inhibitors at different doses (0.08, 0.4, 2 and 10 μM) for 1 hour. Extracellular DNA release was assessed in the supernatant 3 hours after PMA stimulation. The dotted line represents the amount of DNA released from neutrophils treated with PMA alone. […] NETosis induction was measured as level of anti-CitH3 fluorescent signal. […] NET induction was measured as in (C). […] NETosis induction was measured as level of anti-CitH3 fluorescent signal. […] NET induction was measured as in (F). • H, I) Freshly isolated neutrophils from two different donors were treated with different doses of ricolinostat, citarinostat (10, 2, 0.4, 0.08 μM) or GSK484 (10, 5, 2 μM) for 1 h and then stimulated with 1 μM PMA. NET induction was measured as level of anti-CitH3 fluorescent signal (H) and by microscopy as number of cells positive for CitH3 signal per field of view (FOV) (I). […] NET induction was measured as level of anti-CitH3 fluorescent signal. […] Statistics were calculated using One-way ANOVA (A, E, I) and Two-way ANOVA (B, F, G, H, L). […]

Row | SMILES | reactive oxygen species (ROS) production (Murine neutrophils) | extracellular DNA released by PMA-treated neutrophils [1]
1 | O=C(CCCCCCNC(=O)c1cnc(N(c2ccccc2)c2ccccc2)nc1)NO [ricolinostat] | did not alter | –
2 | COc1cc(C(=O)N2CC[C@@H](O)[C@@H](N)C2)cc2nc(-c3cc4ccccc4n3CC3CC3)n(C)c12 [GSK484] | – | significant decrease
